Results as given in ChEMBL document CHEMBL1201862, “PubChem BioAssay data set” (2004).
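Interpolation was linear, between the two tested concentrations surrounding the appropriate level; five concentrations were tested over 48 hours in 96-well plates. Abbreviation: GI50, concentration required for 50% inhibition of growth.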 The source made the active and inactive calls. Rule as the data show it: active = GI50 up to about 1.1 µM and inactive = higher.

Assays:
Assay in all cases: NCI anticancer screen, dose series, 48 h
Malme-3M = tested on: Malme-3M
RPMI-8226 = tested on: RPMI-8226
HOP-92 = tested on: HOP-92
HL-60 = tested on: HL-60
COLO 205 = tested on: COLO 205
HCT-15 = tested on: HCT-15
UACC-62 = tested on: UACC-62
SF-539 = tested on: SF-539
786-0 = tested on: 786-0
NCI-H23 = tested on: NCI-H23
OVCAR-3 = tested on: OVCAR-3
CAKI-1 = tested on: CAKI-1
OVCAR-5 = tested on: OVCAR-5
UACC-257 = tested on: UACC-257
SR = tested on: SR
U-251 = tested on: U-251
HOP-62 = tested on: HOP-62
SNB-19 = tested on: SNB-19
HCC 2998 = tested on: HCC 2998
MOLT-4 = tested on: MOLT-4

| SMILES | GI50 (Malme-3M) | GI50 (RPMI-8226) | GI50 (HOP-92) | GI50 (HL-60) | GI50 (COLO 205) | GI50 (HCT-15) [µM] | GI50 (UACC-62) | GI50 (SF-539) | GI50 (786-0) | GI50 (NCI-H23) | GI50 (OVCAR-3) | GI50 (CAKI-1) | GI50 (OVCAR-5) | GI50 (UACC-257) | GI50 (SR) | GI50 (U-251) | GI50 (HOP-62) | GI50 (SNB-19) | GI50 (HCC 2998) | GI50 (MOLT-4) |
| --- | --- | --- | --- | --- | --- | --- | --- | --- | --- | --- | --- | --- | --- | --- | --- | --- | --- | --- | --- | --- |
| COc1ccc2c3c1OC1C(OC)(OC)C=C[C@@]4(Br)[C@@H](C2)N(CC2CC2)CC[C@]314 (some centres undefined) | 37.1 µM (inactive) | > 100 µM (inactive) | 23.8 µM (inactive) | > 100 µM (inactive) | 31.8 µM (inactive) | > 100 | 68.5 µM (inactive) | > 100 µM (inactive) | > 100 µM (inactive) | 71.3 µM (inactive) | 46.7 µM (inactive) | 59 µM (inactive) | > 100 µM (inactive) | 69.8 µM (inactive) | > 100 µM (inactive) | > 100 µM (inactive) | > 100 µM (inactive) | > 100 µM (inactive) | > 100 µM (inactive) | 80.7 µM (inactive) |
| O=C1OC2(c3ccc(O)cc3Oc3cc(O)ccc32)c2c1c(-c1ccccc1)c(-c1ccccc1)c(-c1ccccc1)c2-c1ccccc1 | 23.5 µM (inactive) | 27.7 µM (inactive) | 20 µM (inactive) | 14.8 µM (inactive) | 19.3 µM (inactive) | 18.7 | 18.7 µM (inactive) | 22.9 µM (inactive) | 27.7 µM (inactive) | – | 34.5 µM (inactive) | 25.1 µM (inactive) | 20.4 µM (inactive) | 27.7 µM (inactive) | 22.6 µM (inactive) | 17.7 µM (inactive) | 23.7 µM (inactive) | 18.7 µM (inactive) | 16.4 µM (inactive) | 23.9 µM (inactive) |
| CN1CCN([C@H]2C[C@H]3[C@@H]4CC=C5C[C@@H](O)CC[C@]5(C)[C@H]4CC[C@]3(C)[C@H]2O)CC1 | > 43.2 µM (inactive) | 23.9 µM (inactive) | > 100 µM (inactive) | 16.8 µM (inactive) | > 67.8 µM (inactive) | > 42.3 | > 44 µM (inactive) | 26.2 µM (inactive) | 17.8 µM (inactive) | > 100 µM (inactive) | > 42.1 µM (inactive) | > 100 µM (inactive) | > 47.5 µM (inactive) | > 49 µM (inactive) | 25.8 µM (inactive) | 17.1 µM (inactive) | > 51.9 µM (inactive) | > 45.5 µM (inactive) | 44.2 µM (inactive) | 49.7 µM (inactive) |
| c1ccc2c(CN3CCN(Cc4c[nH]c5ccccc45)CC3)c[nH]c2c1 | 15.3 µM (inactive) | 19.3 µM (inactive) | 14.8 µM (inactive) | 17.5 µM (inactive) | 5.58 µM (inactive) | 20 | 16.3 µM (inactive) | – | 16.1 µM (inactive) | 19.8 µM (inactive) | 13.1 µM (inactive) | 23.5 µM (inactive) | 18.7 µM (inactive) | 14.4 µM (inactive) | 19.7 µM (inactive) | 15.9 µM (inactive) | 15.1 µM (inactive) | 21.6 µM (inactive) | 1.63 µM (inactive) | – |
| CCCC(=O)Nc1cc(C(=O)N2C[C@H]3C[C@@]34C2=CC(=O)c2[nH]cc(C)c24)n(COC)c1 | 0.105 µM (active) | 0.71 µM (active) | 0.245 µM (active) | 0.045 µM (active) | 0.442 µM (active) | 1.31 | 0.195 µM (active) | 0.177 µM (active) | 0.149 µM (active) | 0.0743 µM (active) | 0.0853 µM (active) | 0.215 µM (active) | 1.16 µM (inactive) | 0.171 µM (active) | 0.00516 µM (active) | 0.114 µM (active) | 0.728 µM (active) | 0.498 µM (active) | 0.122 µM (active) | 0.00879 µM (active) |
| O=C(Oc1ccc(S(=O)(=O)F)cc1F)c1ccccc1Cl | 31.8 µM (inactive) | 21.1 µM (inactive) | 20.2 µM (inactive) | 35.6 µM (inactive) | 19.5 µM (inactive) | 37.5 | 33.6 µM (inactive) | 22.5 µM (inactive) | 33.7 µM (inactive) | 23.9 µM (inactive) | 29.9 µM (inactive) | 64.9 µM (inactive) | 30.9 µM (inactive) | 27.6 µM (inactive) | 24.5 µM (inactive) | 35.2 µM (inactive) | 34.8 µM (inactive) | 30.5 µM (inactive) | 42.6 µM (inactive) | – |
| COc1ccc(C(=O)C(C(=O)C(=O)NCCCNC(=O)C(=O)C(C(=O)c2ccc(OC)cc2)c2ccc(OC)cc2)c2ccc(OC)cc2)cc1 (centres undefined) | > 100 µM (inactive) | > 100 µM (inactive) | > 100 µM (inactive) | > 100 µM (inactive) | > 100 µM (inactive) | > 100 | > 100 µM (inactive) | > 100 µM (inactive) | > 100 µM (inactive) | > 100 µM (inactive) | > 100 µM (inactive) | – | > 100 µM (inactive) | > 100 µM (inactive) | > 100 µM (inactive) | > 100 µM (inactive) | > 100 µM (inactive) | > 100 µM (inactive) | > 100 µM (inactive) | > 100 µM (inactive) |
| CC[C@]1(Cc2ccc(OC)c(OC)c2)C=[N+]([O-])O[C@H](OCc2ccccc2)[C@@H]1OC(C)=O | 20.7 µM (inactive) | 18.2 µM (inactive) | 23.9 µM (inactive) | 16.6 µM (inactive) | 17.1 µM (inactive) | 29.8 | 26.2 µM (inactive) | – | 36.2 µM (inactive) | 34.9 µM (inactive) | 15.8 µM (inactive) | 24.8 µM (inactive) | 59.7 µM (inactive) | 21.3 µM (inactive) | 24.3 µM (inactive) | 32.3 µM (inactive) | 34.2 µM (inactive) | 58.3 µM (inactive) | 45.7 µM (inactive) | 6.34 µM (inactive) |
| O=C(O)CCC1(c2ccccc2)NC(=O)NC1=O (centres undefined) | > 100 µM (inactive) | > 100 µM (inactive) | > 100 µM (inactive) | > 100 µM (inactive) | > 100 µM (inactive) | > 100 | > 100 µM (inactive) | > 100 µM (inactive) | > 100 µM (inactive) | > 100 µM (inactive) | > 100 µM (inactive) | > 100 µM (inactive) | > 100 µM (inactive) | > 100 µM (inactive) | > 100 µM (inactive) | > 100 µM (inactive) | > 100 µM (inactive) | – | > 100 µM (inactive) | – |
| COc1ccc2cc(C(C)C(=O)N3C(=O)OCC3(C)C)ccc2c1 (centres undefined) | > 100 µM (inactive) | > 100 µM (inactive) | > 100 µM (inactive) | > 100 µM (inactive) | > 100 µM (inactive) | > 100 | > 100 µM (inactive) | – | > 100 µM (inactive) | > 100 µM (inactive) | > 100 µM (inactive) | – | > 100 µM (inactive) | > 100 µM (inactive) | > 100 µM (inactive) | > 100 µM (inactive) | > 100 µM (inactive) | > 100 µM (inactive) | > 100 µM (inactive) | > 100 µM (inactive) |
| CCOC(=O)c1csc(-c2nc(CCNC(=O)c3ccccc3)sc2Cl)n1 | > 100 µM (inactive) | 44 µM (inactive) | 5.74 µM (inactive) | 41.5 µM (inactive) | 77.3 µM (inactive) | 51.3 | 59.3 µM (inactive) | > 100 µM (inactive) | > 100 µM (inactive) | 40.9 µM (inactive) | 45.8 µM (inactive) | – | > 100 µM (inactive) | > 100 µM (inactive) | 37.1 µM (inactive) | 73.8 µM (inactive) | 55.7 µM (inactive) | > 100 µM (inactive) | > 100 µM (inactive) | 34.3 µM (inactive) |
| CC(C)(C)OC(=O)NC(Cc1ccc(OCc2ccccc2)cn1)C(=O)NCc1ccccc1 (centres undefined) | 22.8 µM (inactive) | 16.3 µM (inactive) | 20 µM (inactive) | 15.1 µM (inactive) | 17.1 µM (inactive) | 24.6 | 14.5 µM (inactive) | – | 27.1 µM (inactive) | 17 µM (inactive) | 19.3 µM (inactive) | 28.6 µM (inactive) | 38.6 µM (inactive) | 16.9 µM (inactive) | 10.1 µM (inactive) | 26.1 µM (inactive) | 23.3 µM (inactive) | 49.9 µM (inactive) | 34.2 µM (inactive) | 13.2 µM (inactive) |
| Oc1ccc(O)c(CNc2ccccc2)c1 | 14.2 µM (inactive) | 1.02 µM (active) | 5.07 µM (inactive) | 2.67 µM (inactive) | 18.8 µM (inactive) | 10.3 | 13.3 µM (inactive) | 3.46 µM (inactive) | 10.3 µM (inactive) | 10.2 µM (inactive) | 4.62 µM (inactive) | 6.89 µM (inactive) | 21.6 µM (inactive) | 16.9 µM (inactive) | 2.29 µM (inactive) | 17.1 µM (inactive) | – | 19.5 µM (inactive) | 26.2 µM (inactive) | 2.26 µM (inactive) |
| c1c(N2CCOCC2)s[s+]c1N1CCOCC1 | > 100 µM (inactive) | > 100 µM (inactive) | > 100 µM (inactive) | > 100 µM (inactive) | – | > 100 | > 100 µM (inactive) | > 100 µM (inactive) | > 100 µM (inactive) | > 100 µM (inactive) | – | > 100 µM (inactive) | > 100 µM (inactive) | > 100 µM (inactive) | > 100 µM (inactive) | > 100 µM (inactive) | > 100 µM (inactive) | > 100 µM (inactive) | > 100 µM (inactive) | > 100 µM (inactive) |
| CCC1(C)N=c2c(ncn2N=C(C)C)=C(C(N)=O)N1 (centres undefined) | > 100 µM (inactive) | > 100 µM (inactive) | 0.426 µM (active) | > 100 µM (inactive) | > 100 µM (inactive) | > 100 | > 100 µM (inactive) | > 100 µM (inactive) | > 100 µM (inactive) | > 100 µM (inactive) | > 100 µM (inactive) | > 100 µM (inactive) | > 100 µM (inactive) | > 100 µM (inactive) | > 100 µM (inactive) | > 100 µM (inactive) | > 100 µM (inactive) | > 100 µM (inactive) | > 100 µM (inactive) | – |
